This is an account of results in patent US5610297A, “Peptides ketoamides” (Georgia Tech Research Corp., priority 1995, dated 1997).

Data set [1] in a line: Half-life in liver. The data set is classed as in vitro ADME. The conditions noted are these: unit inferred, unit assumed.
In data set [2] the target is porcine pancreatic elastase (PPE) (Sus scrofa, UniProt P00772). Briefly: Inhibition of PP elastase (Suc-Ala-Ala-Ala-NA hydrolysis). The data set is classed as biochemical. As to the method:
(§1) Assay of Inhibitory Potency. Peptide α-ketoamides were assayed as reversible enzyme inhibitors. Various concentrations of inhibitors in Me2 SO were added to the assay mixture which contained buffer and substrate. The reaction was started by the addition of the enzyme and the hydrolysis rates were followed spectrophotometrically or fluorimetrically.
(§2) A 0.1M Hepes, 0.5M NaCl, pH 7.5 buffer was utilized for human leukocyte elastase (HLE), porcine pancreatic elastase (PPE), chymotrypsin and cathepsin G. A 0.1 Hepes, 0.01M CaCl2, pH 7.5 buffer was utilized for trypsin, plasmin, and coagulation enzymes. A 50 mM Tris-HCl, 2 mM EDTA, 5 mM cysteine, pH 7.5 was used as a buffer for papain. A 88 mM KH2 PO4, 12 mM Na2 HPO4, 1.33 mM EDTA, 2.7 mM cysteine, pH 6.0 solution was used as a buffer for cathepsin B. A 20 mM Hepes, 10 mM CaCl2, 10 mM mercatoethanol, pH 7.2 buffer was utilized for calpain I and calpain II.
(§3) HLE and PPE were assayed with MeO-Suc-Ala-Ala-Pro-Val-NA and Suc-Ala-Ala-Ala-NA, respectively [Nakajima et al., J. Biol. Chem. 254, 4027-4032 (1979); incorporated herein by reference]. Human leukocyte cathepsin G and chymotrypsin Aα were assayed with Suc-Val-Pro-Phe-NA [Tanaka et al., Biochemistry 24, 2040-2047 (1985); incorporated herein by reference]. The hydrolysis of peptide 4-nitroanilides was measured at 410 nm [ε410 =8800 M^-1 cm^-1; Erlanger et al., Arch. Biochem. Biophys. 95, pp 271-278 (1961); incorporated herein by reference]. Trypsin, thrombin, human plasma kallikrein, porcine pancreatic kallikrein, human factor XIa, and human plasmin were assayed with Z-Arg-SBzl or Z-Gly-Arg-SBu-i [McRae et al., Biochemistry 20, 7196-7206 (1981); incorporated herein by reference]. All peptide thioester hydrolysis rates were measured with assay mixtures containing 4,4'-dithiodipyridine [ε324 =19800 M^-1 cm^-1; Grasetti & Murray, Arch. Biochem. Biophys. 119, 41-49 (1967); incorporated herein by reference].

Data set [3] is described as follows: Half-life in plasma. Type of data set: in vitro ADME. The conditions noted are these: unit inferred, unit assumed.
Data set [4] has as its target Calpain II from rabbit muscle. In words: Inhibition of calpain II (Suc-Leu-Tyr-AMC hydrolysis). The data set is classed as biochemical. As to the method:
(§4) Materials and Methods. HEPES, heparin, and A23187 were obtained from Calbiochem. Suc-Leu-Tyr-AMC and chromogenic substrates were obtained from Sigma. Calpain I was purified from human erythrocytes according to the method of Kitahara (Kitahara et al., J. Biochem. 95, 1759-1766) omitting the Blue-Sepharose step. Calpain II from rabbit muscle and cathepsin B were purchased from Sigma. Papain was purchased from Calbiochem.
as §1
(§5) Calpain I from human erythrocytes and calpain II from rabbit were assayed using Suc-Leu-Tyr-AMC [Sasaki et al., J. Biol. Chem. 259, 12489-12494 (1984); incorporated herein by reference], and the AMC (7-amino-4-methylcoumarin) release was followed fluorimetrically (excitation at 380 nm, and emmision at 460 nm). Calpains were assayed in 25 mM Tris pH=8.0, 10 mM CaCl2. Fluorescence was followed using a Gilson FL-1A fluorometer or a Perkin-Elmer 203 Fluorescence spectrometer. Cathepsin B was assayed in 20 mM sodium acetate pH=5.2, 0.5 mM dithiothreitol using Bz-Phe-Val-Arg-p-nitroanilide as substrate. Alternately, cathepsin B was assayed with Z-Arg-Arg-AFC [Barrett and Kirschke, Methods Enzymol. 80, 535-561 (1981); incorporated herein by reference], and the AFC (7-amino-4-trifluoromethylcoumarin) release was followed fluorimetrically (excitation at 400 nm and emmision at 505 nm). Papain was assayed in 100 mM KPO4, 1 mM EDTA, 2.5 mM cysteine pH=6.0 using Bz-Arg-AMC or Bz-Arg-NA [Kanaoka et al., Chem. Plmrm. Bull. 25, 3126-3128 (1977); incorporated herein by reference] as a substrate. The AMC (7-amino-4-methylcoumarin) release was followed fluorimetrically (excitation at 380 nm, and emmision at 460 nm). Enzymatic hydrolysis rates were measured at various substrate and inhibitor concentrations, and KI values were determined by either Lineweaver-Burk plots or Dixon plots.
as §2

Data set [5] deals with chymotrypsin (Bos taurus, UniProt P00766, DEL14-15/DEL147-148). In words: Inhibition of chymotrypsin (Suc-Val-Pro-Phe-NA hydrolysis). Type of data set: biochemical, bovine. As to the method:
as §1, §2, §3

Data set [6] deals with cathepsin B. Briefly: Inhibition of cathepsin B. Particulars: read-out: KI Cath B. Type of data set: biochemical. As to the method: as §4, §1, §5, §2
The subject of data set [7] is Calpain-mediated breakdown of spectrin in platelets. Briefly: Platelet membrane permeability assay. The data set is classed as cell-based, rat. Further details: unit not given here. The conditions noted are these: numeric value, unit not given. As to the method: (§6) Platelet membrane permeability assay. Calpain-mediated breakdown of spectrin was measured by quantitative densitometry of the calpain-specific 150/155 kDa spectrin fragment doublet [see Siman et al., Proc. Natl. Acad. Sci. USA 81, 3572-3576 (1984)]. Platelets were isolated by a modification of the method of Ferrell and Martin [J. Biol. Chem. 264, 20723-20729 (1989)]. Blood (15-20 ml) was drawn from male Sprague-Dawley rats into 1/10th volume of 100 mM EDTA-citrate, and centrifuged 10 minutes at 2000 rpm in a clinical centrifuge at room temperature. […] Platelets were washed once in 15 ml buffer 1, then resuspended to 10^7 cells/ml in buffer 2 (136 mM NaCl, 2.7 mM KCl, 0.42 mM NaH2 PO4, 12 mM NaHCO3, 2mM MgCl, 1 mg/ml BSA (Sigma), 5.6 mM glucose, 20 mM HEPES (Sigma) pH 7.4) and allowed to "rest" for a minimum of 10 minutes at room temperature before use.
(§7) Inhibitors were added from stock solutions made fresh in DMSO. 100 μl platelets, suspended to 10^7 cells/ml in buffer 2, were incubated with 1 μl of an inhibitor solution for 5 minutes at room temperature prior to the addition of 2 mM Ca^2+ and 1 uM A23 187. After 10 minutes total exposure to inhibitor (5 minutes exposure to ionophore) at room temperature, platelets were reisolated at 14,000 rpm for 10 sec in a Beckman microfuge, dissolved in SDS-PAGE sample buffer, and heated to 90° C. for 3 minutes.
(§8) Samples were subjected to SDS-PAGE in 4-12% gradient mini gels (Novex) and transferred to nitrocellulose (Schleicher and Schuell 0.45 um) by electroblotting. Filters were blocked for 10 minutes in 0.25% gelatin, 1% BSA, 0.25% triton X100, 0.9% NaCl, 10 mM Tris-Cl pH 7.5, incubated overnight in the same solution containing antibody to rat spectrin, washed 3×10 minutes with 10 mM Tris-Cl pH 7.5, 0.5% triton X100, incubated 4 hours in wash buffer plus alkaline phosphatase conjugated goat anti-rabbit antibody (Biorad), and washed as above. Blots were developed using the Biorad AP conjugate substrate kit. Quantitative densitometry was used to obtain values for the intact spectrin bands and the 150/155 kDa breakdown product doublet.

Data set [8] shares this test system. Briefly: Platelet membrane permeability assay. The conditions noted are these: class symbols; quantitative measurements not yet complete. Further details: key: +++ = excellent activity; ++ = good activity; + = moderate activity; quantitative measurements not yet complete. The data set is classed as cell-based, rat. As to the method: as §6, §7, §8
The target in data set [9] is T1, papain (Carica papaya, UniProt P00784).
T1 sequence (P00784 134-345): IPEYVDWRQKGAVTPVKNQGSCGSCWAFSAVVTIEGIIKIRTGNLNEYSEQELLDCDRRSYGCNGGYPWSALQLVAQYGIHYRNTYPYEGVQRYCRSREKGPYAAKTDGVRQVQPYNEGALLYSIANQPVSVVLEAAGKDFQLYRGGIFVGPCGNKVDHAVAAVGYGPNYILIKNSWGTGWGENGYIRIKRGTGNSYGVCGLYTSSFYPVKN
The conditions noted are these: reported by Hu and Abeles; cited from earlier work.

Data set [10] concerns the target cathepsin B (Homo sapiens, UniProt P07858). The conditions noted are these: reported by Hu and Abeles; cited from earlier work.

Sequence of porcine pancreatic elastase (PPE) (P00772 27-266): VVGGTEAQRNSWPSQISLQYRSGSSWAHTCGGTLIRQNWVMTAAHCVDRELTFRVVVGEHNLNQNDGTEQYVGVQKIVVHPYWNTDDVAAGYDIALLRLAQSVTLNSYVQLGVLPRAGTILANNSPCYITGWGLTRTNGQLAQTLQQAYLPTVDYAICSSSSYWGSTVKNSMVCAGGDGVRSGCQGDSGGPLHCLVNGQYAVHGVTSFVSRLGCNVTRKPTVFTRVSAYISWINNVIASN

One may read the Ki as the equilibrium dissociation constant of an inhibitor or competing ligand from its target. As for `CCCNC(=O)C(=O)[C@H](CC)NC(=O)[C@H](CC(C)C)NC(=O)OCc1ccccc1` [Z--Leu--Abu--CONH--nPr, Z-Leu-Abu-CONH-nPr], in data set [1], the t 1/2 liver is more than 60 min. Besides, the Ki is 2 µM in data set [2], 0.25 µM in data set [4], more than 300 µM in [5] and 8 µM in data set [6]. The compound further returned a t 1/2 plasma in [3] of more than 60 min. Further, the “platelet (Activity in the Platelet Assay)” value (“platelet” for short) in [7] is recorded as 70.
As to `CC[C@H](NC(=O)[C@H](CC(C)C)NC(=O)OCc1ccccc1)C(=O)C(=O)OCc1ccccc1` [Z--Leu--Abu--COOBzl], the “platelet” value in data set [8] is listed as “++”.
Still for that read-out and setting: the entry for `CCOC(=O)C(=O)[C@H](Cc1ccccc1)NC(=O)[C@H](CC(C)C)NC(=O)[C@H](CC(C)C)NC(=O)OCc1ccccc1` [Z--Leu--Leu--Phe--COOEt] is “++”.
For `CCOC(=O)C(=O)C(CCSC)NC(=O)C(CC(C)C)NC(=O)OCc1ccccc1` (stereo not drawn) [Z--Leu--Met--COOEt], in data set [3], the t 1/2 plasma turned out to be 8 min. Also, the “platelet” value in data set [8] is “+”.
Consider `CCCCNC(=O)C(=O)C(Cc1ccccc1)NC(=O)C(CC(C)C)NC(=O)OCc1ccccc1` (stereo not drawn) [Z--Leu--Phe--CONH--nBu, Z-Leu-Phe-CONH-nBu], for which, in data set [1], the t 1/2 liver is more than 60 min. In addition, the Ki in data set [2] is more than 100 µM; in data set [4] it was 0.028 µM; in [5] it was 8 µM; in data set [6], 3 µM. Moreover, the t 1/2 plasma in data set [3] is more than 60 min. Moreover, the “platelet” value in data set [7] was determined as 38.
With `CC(C)CC(NC(=O)OCc1ccccc1)C(=O)NC(Cc1ccccc1)C(=O)C(=O)OCc1ccccc1` (stereo not drawn) [Z--Leu--Phe--COOBz], the t 1/2 plasma in data set [3] amounted to 1.9 min. The “platelet” value in data set [8] is “++”.
The matching figures for `CCCCOC(=O)C(=O)[C@H](Cc1ccccc1)NC(=O)[C@H](CC(C)C)NC(=O)OCc1ccccc1` [Z--Leu--Phe--COOnBu]: 7.7 min and “+++”.
In the case of `CCNC(=O)C(=O)CNC(=O)[C@H](Cc1ccccc1)NC(=O)OCc1ccccc1` [Z-Phe-Gly-CO--NH-Et], the Ki in data set [9] was 1.5 µM; in data set [10], 4 µM.
